The text below walks through data of US6878689B2, “Preventives or remedies for heart failure” (Kaken Pharmaceutical Co., Ltd., priority 2000, dated 2005).

This data set relates to anesthetized open-chest rabbits. The experiment in a line: Effects of intravenously administered pralmorelin on cardiac function of anesthetized open-chest rabbit. It is filed as in vivo. The method, then:
[Test Example 2] Effects of Intravenously Administered Pralmorelin on the Cardiac Function of Rabbit
The effects of pralmorelin on cardiac function were evaluated by measuring various parameters [blood pressure, heart rate, systolic left ventricular pressure (LVPsys), and maximal positive dP/dt (+dP/dtmax) obtained by differentiating the waveform of left ventricular pressure (LVP)]. The value of the maximal positive dP/dt for the left ventricular pressure (+dP/dtmax) is particularly important to determine if the cardiotonic action is sufficient to treat acute heart failure. • 1. Test Substance and Reagent • 1) Test Substance
Pralmorelin dihydrochloride (hereunder referred to as KP-102) (prepared by the method described in WO 9304081) was dissolved in distilled water for injection to prepare a 1.5 mg/mL solution. • 2) Control
Male NZW-strain rabbits (Kitayama Labes) weighing about 2 kg were used in the experiment. After arrival, the animals were allowed to eat a solid meal (Labo R Stock, Oriental Yeast Co., Ltd.) and drink water in a room at a temperature of 20±2° C. and at a humidity of 55±15% under 12-hr light/ dark cycles (from 7:00 to 19:00); the animals were kept under these conditions for at least 6 days before use. • 3. Test Method • 1) Measuring the Cardiac Function of Anesthetized Open-Chest Rabbit
Rabbits were anesthetized by administering 30 mg/kg of sodium pentobarbital into the auricular vein at a slow speed with attention to their breathing. The animals were then fixed in supine position and an endotracheal cannula was inserted. Under artificial respiration (tidal volume, 25 mL/breath; ventilation frequency, 45 breaths/min: SN-480-7 of Shinano Seisakusyo), the chest of each animal was opened by midline incision and the pericardium was incised to expose the heart. The left ventricular pressure (LVP) was measured with a pressure transducer (TP-300T, Nihon Kohden) and a pressure amplifier (AG-610G, Nihon Kohden) as a cannula with syringe was inserted from the cardiac apex into the left ventricle. The waveform of LVP was differentiated with a differentiator unit (ED-601, Nihon Kohden) to determine the maximal positive dP/dt(+dP/dtmax), which was used as an index for cardiac contractility. Blood pressure was measured with a pressure amplifier (AP-610G, Nihon Kohden) via a pressure transducer (TP-300T, Nihon Kohden) connected to a cannula inserted into the left femoral artery. Heart rate was measured with a cardiotachometer (AT-601G, Nihon Kohden) that was driven by counting the pulse waves of LVP. The parameters mentioned above were recorded on a recorder (TA-11, Gould). A cannula was inserted into the left femoral vein so as to assist in the administration of the test substance. The rectum temperature of each animal was controlled at 39° C. with a body temperature controller (TK-43, Asahi Denshi). The anesthetic was added as required but additional anesthetization should be avoided during the measurements. • 2) Groups
After each parameter stabilized, distilled water (0.2 mL/kg) was administered over one minute with an infusion pump (FP-W-100, Toyo Sangyo K.K.) and observations were made for 5 minutes after the administration to see whether the vehicle would have no effect. About 5 minutes after the administration of distilled water, the test substance was administered with an infusion pump in a volume of 0.2 mL/kg over one minute according to the grouping method specified above. Each hemodynamic parameter was measured both before administration and 1, 3, 5, 10, 15, 20 and 25 minutes after administration and the percent changes from the basal values were calculated. In some animals, measurement was conducted until 40 minutes after the administration of the test substance. • 4. Statistical Analysis
The results were each expressed by mean ± standard deviation. Any difference between groups was tested by repeated measures ANOVA (analysis of variance); The significance level was set at 5%. • 5. […]

[1] abbreviates: 300 μg/kg i.v. over one minute, n=4, p<0.01 vs control.

Structures are written as SMILES. Where a SMILES comes first, the peptide text is derived from it. [ ]: non-standard residue; d: D form. d2Nal = N[C@H](Cc1ccc2ccccc2c1)C(=O)O

As to `C[C@H](NC(=O)[C@@H](Cc1ccc2ccccc2c1)NC(=O)[C@@H](C)N)C(=O)N[C@@H](Cc1c[nH]c2ccccc12)C(=O)N[C@H](Cc1ccccc1)C(=O)N[C@@H](CCCCN)C(N)=O` [KP-102, D-alanyl-3-(naphthalen-2-yl)-D-alanyl-L-alanyl-L-tryptophyl-D-phenylalanyl-L-lysinamide] (H-[dA][d2Nal]AW[dF]K-NH2), where the note is “300 μg/kg i.v.”, the “overall effect on heart rate” value is “little affected” and the “time until blood pressure baseline value practically restored” value was roughly 25 min. Under setting [1], the “Maximum increase in +dP/dtmax, of the baseline value” was 22% and the “Maximum increase in LVPsys, of the baseline value” is 13%. Where the note is “300 μg/kg i.v., 3 minutes after the administration”, the “drop in heart rate” value was 2%. Also, the “increase in heart rate” value (300 μg/kg i.v., 15 minutes after the administration) is 1%. For the same compound, the “increase in heart rate” value (300 μg/kg i.v., 25 minutes after the administration) is on record as 2%. The “period of peak of cardiotonic action” value (300 μg/kg i.v., LVPsys and +dP/dtmax) lay in the range of 5 to 10 min. Further, the “time until baseline values of LVPsys and +dP/dtmax restored” value (300 μg/kg i.v., one case with extended monitoring) was no more than 40 min. Moreover, where the note is “300 μg/kg i.v., p<0.05 vs control”, the “effect on mean blood pressure” value is recorded as “significant rise of blood pressure”.
